Data on 11 compounds can be found in patent publication US9376442B2, “Methylpyrrolopyrimidinecarboxamides” (Takeda GmbH, priority 2009, dated 2016).

This test deals with T1, PDE5A1 (Homo sapiens, UniProt O76074).
T1 construct: from tissue; host or cells: human platelets from fresh donor blood (10,000 x g supernatant of sonicated lysate)
Nature of the test: Inhibition of type 5 phosphodiesterase (PDE5) activity, modified SPA test with human platelet lysate. It is filed as biochemical. As to conditions: 0.5 μM cGMP, read-out: PDE5A1 inhibitory values [measured as −log IC50 (mol/l)] (converted). The method in brief: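 Scintillation proximity assay with [3H]cGMP tracer at 0.5 μM total cGMP, stopped after 15 min with beads containing IBMX. PDE3 and PDE2 activities suppressed with motapizone (1 μM) and a PDE2 inhibitor (10 nM). Human platelet supernatant served as the enzyme, with compound preincubated 5 min at 37° C; IC50 values from concentration-effect curves.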

Take `COCC(=O)N[C@H]1CC[C@H](NC(=O)c2c(C)[nH]c3c(-c4ccc(F)cc4OCC4CC4)ncnc23)CC1` [Example E24, 4-[2-(Cyclopropylmethoxy)-4-fluorophenyl]-N-{trans-4-[(methoxyacetyl)amino]cyclohexyl}-6-methyl-5H-pyrrolo[3,2-d]pyrimidine-7-carboxamide]: the IC50 is less than 1 nM. For `CC(=O)N[C@H]1CC[C@@H](NC(=O)c2c(C)[nH]c3c(-c4ccc(F)cc4OCC4CC4)ncnc23)CC1` [Example E25, N-(cis-4-acetamidocyclohexyl)-4-[2-(cyclopropylmethoxy)-4-fluorophenyl]-6-methyl-5H-pyrrolo[3,2-d]pyrimidine-7-carboxamide] the value was less than 1 nM.

Regarding `CCC(=O)N[C@H]1CC[C@@H](NC(=O)c2c(C)[nH]c3c(-c4ccc(F)cc4OCC4CC4)ncnc23)CC1` [Example E26, 4-[2-(Cyclopropylmethoxy)-4-fluorophenyl]-6-methyl-N-[cis-4-(propionylamino)cyclohexyl]-5H-pyrrolo[3,2-d]pyrimidine-7-carboxamide], the IC50 was less than 1 nM. Turning to `COCC(=O)N[C@H]1CC[C@@H](NC(=O)c2c(C)[nH]c3c(-c4ccc(F)cc4OCC4CC4)ncnc23)CC1` [Example E27, 4-[2-(Cyclopropylmethoxy)-4-fluorophenyl]-N-{cis-4-[(methoxyacetyl)amino]cyclohexyl}-6-methyl-5H-pyrrolo[3,2-d]pyrimidine-7-carboxamide], the IC50 is less than 1 nM.

Turning to `CC(=O)N1CC[C@@H](NC(=O)c2c(C)[nH]c3c(-c4ccc(F)cc4OCC4CC4)ncnc23)C1` [Example E28, N-[(3R)-1-acetylpyrrolidin-3-yl]-4-[2-(cyclopropylmethoxy)-4-fluorophenyl]-6-methyl-5H-pyrrolo[3,2-d]pyrimidine-7-carboxamide], the IC50 is 1 to 10 nM.

Consider `CCC(=O)N1CC[C@@H](NC(=O)c2c(C)[nH]c3c(-c4ccc(F)cc4OCC4CC4)ncnc23)C1` [Example E29, 4-[2-(Cyclopropylmethoxy)-4-fluorophenyl]-6-methyl-N-[(3R)-1-propanoylpyrrolidin-3-yl]-5H-pyrrolo[3,2-d]pyrimidine-7-carboxamide], for which the IC50 is less than 1 nM. On to `COCC(=O)N1CC[C@@H](NC(=O)c2c(C)[nH]c3c(-c4ccc(F)cc4OCC4CC4)ncnc23)C1` [Example E30, 4-[2-(Cyclopropylmethoxy)-4-fluorophenyl]-N-[(3R)-1-(methoxyacetyl)pyrrolidin-3-yl]-6-methyl-5H-pyrrolo[3,2-d]pyrimidine-7-carboxamide], for which the IC50 is less than 1 nM.

Regarding `CC(=O)N1CC[C@@H](NC(=O)c2c(C)[nH]c3c(-c4cc(F)ccc4OCC4CC4)ncnc23)C1` [Example E46, N-[(3R)-1-acetylpyrrolidin-3-yl]-4-[2-(cyclopropylmethoxy)-5-fluorophenyl]-6-methyl-5H-pyrrolo[3,2-d]pyrimidine-7-carboxamide], the IC50 is 1 to 10 nM. As for `CCC(=O)N1CC[C@@H](NC(=O)c2c(C)[nH]c3c(-c4cc(F)ccc4OCC4CC4)ncnc23)C1` [Example E47, 4-[2-(Cyclopropylmethoxy)-5-fluorophenyl]-6-methyl-N-[(3R)-1-propanoylpyrrolidin-3-yl]-5H-pyrrolo[3,2-d]pyrimidine-7-carboxamide], the IC50 was 1 to 10 nM. For `COCC(=O)N1CC[C@@H](NC(=O)c2c(C)[nH]c3c(-c4cc(F)ccc4OCC4CC4)ncnc23)C1` [Example E48, 4-[2-(Cyclopropylmethoxy)-5-fluorophenyl]-N-[(3R)-1-(methoxyacetyl)pyrrolidin-3-yl]-6-methyl-5H-pyrrolo[3,2-d]pyrimidine-7-carboxamide] the value was 1 to 10 nM; for `CCOc1ccc(F)cc1-c1ncnc2c(C(=O)NC3CCN(C(C)=O)CC3)c(C)[nH]c12` [Example E52, N-(1-acetylpiperidin-4-yl)-4-(2-ethoxy-5-fluorophenyl)-6-methyl-5H-pyrrolo[3,2-d]pyrimidine-7-carboxamide], 1 to 10 nM.
